According to publication PMC8352719 (The Journal of General Physiology, 2021):

Target: BKα/γ1 channels (Homo sapiens, UniProt Q12791)
Assay: Whole-cell recordings from HEK-293T cells overexpressing BKα/γ1 channels
Type: cell-based

Chain of BKα/γ1 channels (Q12791 whole entry): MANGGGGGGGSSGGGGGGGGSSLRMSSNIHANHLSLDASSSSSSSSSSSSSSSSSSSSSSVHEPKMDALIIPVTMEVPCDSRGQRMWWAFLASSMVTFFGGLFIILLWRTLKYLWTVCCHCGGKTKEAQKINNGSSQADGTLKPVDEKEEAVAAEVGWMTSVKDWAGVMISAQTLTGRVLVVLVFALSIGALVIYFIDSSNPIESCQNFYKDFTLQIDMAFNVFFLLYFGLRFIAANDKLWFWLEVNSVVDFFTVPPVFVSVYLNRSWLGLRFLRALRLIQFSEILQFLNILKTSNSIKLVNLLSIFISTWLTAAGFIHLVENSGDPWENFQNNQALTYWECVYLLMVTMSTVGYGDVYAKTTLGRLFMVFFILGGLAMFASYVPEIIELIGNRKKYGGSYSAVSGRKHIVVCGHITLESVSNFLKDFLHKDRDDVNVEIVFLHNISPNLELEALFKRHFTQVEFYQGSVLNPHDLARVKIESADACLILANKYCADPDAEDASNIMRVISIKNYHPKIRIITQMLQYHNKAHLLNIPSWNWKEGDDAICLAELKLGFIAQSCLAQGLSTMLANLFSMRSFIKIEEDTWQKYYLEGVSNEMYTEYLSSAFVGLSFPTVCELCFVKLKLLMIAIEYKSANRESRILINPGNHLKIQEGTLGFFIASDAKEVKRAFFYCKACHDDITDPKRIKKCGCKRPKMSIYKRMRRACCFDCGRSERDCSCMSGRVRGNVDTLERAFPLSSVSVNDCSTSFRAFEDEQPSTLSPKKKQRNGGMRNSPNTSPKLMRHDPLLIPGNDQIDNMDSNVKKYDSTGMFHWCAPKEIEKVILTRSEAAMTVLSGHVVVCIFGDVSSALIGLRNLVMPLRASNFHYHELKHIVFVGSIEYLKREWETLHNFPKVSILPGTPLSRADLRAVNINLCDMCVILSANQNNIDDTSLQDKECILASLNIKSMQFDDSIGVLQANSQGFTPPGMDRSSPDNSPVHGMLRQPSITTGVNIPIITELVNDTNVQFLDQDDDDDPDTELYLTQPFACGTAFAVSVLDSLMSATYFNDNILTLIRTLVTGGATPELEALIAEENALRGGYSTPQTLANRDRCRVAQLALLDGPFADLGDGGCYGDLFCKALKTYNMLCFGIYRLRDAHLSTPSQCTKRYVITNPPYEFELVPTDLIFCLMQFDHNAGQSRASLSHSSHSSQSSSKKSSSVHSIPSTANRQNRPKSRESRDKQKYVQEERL
Chain of BKα/γ1 channels (Q2I0M4 27-334 partner): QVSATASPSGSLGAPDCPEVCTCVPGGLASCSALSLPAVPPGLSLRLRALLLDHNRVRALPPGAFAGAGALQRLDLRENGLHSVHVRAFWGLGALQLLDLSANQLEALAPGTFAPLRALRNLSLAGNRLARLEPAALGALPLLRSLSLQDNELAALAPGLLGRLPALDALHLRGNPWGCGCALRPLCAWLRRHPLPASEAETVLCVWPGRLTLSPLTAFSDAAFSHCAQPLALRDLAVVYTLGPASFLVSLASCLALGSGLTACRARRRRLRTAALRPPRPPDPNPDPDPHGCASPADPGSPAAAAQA

For `CC[N+](CC)(CC)CC` [TEA], the “fractional current not blocked” value (1 mM extracellular TEA) was 0.082 ± 0.0007, the “time constant to reach equilibrium” value (bath application of 1 mM TEA) was 8.4 ± 1 s and the “τ of exponential fit (c)” value (representative experiment Fig. 5 A, back to 0 LOP/0 TEA at t = 17 min) was 13.2 s. For the same compound, the “τ of exponential fit (b)” value (representative experiment Fig. 5 A, switch to 1 mM TEA at t = 15 min) was 7.3 s.
